Data: patent publication US4281009A, “Hydantoin derivatives” (Nippon Zoki Pharmaceutical Co., Ltd., priority 1978, dated 1981)

Key:
dd-strain male mice [1] = test: Inhibitory effect on Tremorine-induced tremor; format: in vivo; conditions: tremorine 10 mg/Kg
Protocol: 9. Inhibitory effect on Tremorine-induced tremor:
Groups of mice each comprising 10-40 dd-strain male mice were used. Effect of the compounds of the present invention on tremor caused by tremorine was examined. The compounds of the present invention or DPH was given intraperitoneally. 45 minutes thereafter, 10 mg/Kg of tremorine was given intraperitoneally for inducing the tremor.

dd-strain male mice [2] = test: Antiulcerogenic effect on Takagi's restraint-plus-water-immersing ulcer; format: in vivo
Protocol: 6.1 Antiulcerogenic effect on Takagi's restraint-plus-water-immersing ulcer: Groups each comprising 8-26 dd-strain male mice were used. The tests were carried out according to a method of Takagi, et al. [Chem. Pharm. Bull.; 12, 465 (1964)]. Sum of length of diseased parts in the glandular stomach was measured and it was compared with that of control group. The compounds of the present invention or DPH was given intraperitoneally immediately before the restraint and immersion in water.

[3] = test system: normal mice and SART stress mice; test: Analgesic effect, D'Amour-Smith method; format: in vivo, mice (ddY-strain male); conditions: Mus musculus; for responders at 500 mg/kg: po, peroral 500 mg/kg; for responders at 200 mg/kg: ip, intraperitoneal 200 mg/kg
Protocol: 5.3. D'Amour-Smith method:
Groups each comprising 10 ddY-strain male normal mice and SART stress mice to which SART stress had been applied for 4 days were used. The root of the tail of the mouse to which black ink was applied was irradiated with infrared rays for up to 15 seconds. Time required till escape response was observed was measured. The effect was shown by the ratio of the mice in which an average value of the response time at 30, 60, 90 and 120 minutes after the administration of the compounds of the present invention or other comparative drugs was prolonged to at least 2 times as long as the time before the administration.

[4] = test system: normal mice and SART stress mice; test: Analgesic effect, acetic acid writhing method; format: in vivo; conditions: Mus musculus, sc, 100 mg/Kg subcutaneously
Protocol: 5.2. Acetic acid writhing method: 0.1 ml./10 g of isotonic sodium chloride solution containing 0.7% acetic acid was given intraperitoneally to groups of mice each comprising 5 normal mice and 5 SART stress mice to which SART stress had been applied for 8 days. Writhing syndromes number appeared for 15 minutes after the administration was measured. The effect was evaluated by giving 100 mg/Kg of the compounds of the present invention or DPH subcutaneously and comparing the writhing syndromes number of the mice with that of control mice.

[5] = test system: normal mice and SART stress mice; test: Analgesic effect, tail pressure method (Randall-Selitto's device); format: in vivo, mice (ddY-strain male); conditions: Mus musculus; for change in vivo at 100 mg/kg / change in vivo at 200 mg/kg: ip; for change in vivo at 500 mg/kg: po, peroral 500 mg/kg; for change in vivo at 200 mg/kg: intraperitoneal 200 mg/kg
Protocol: 5.1 Tail pressure method:
Randall-Selitto's device for determining analgesic effect by pressure stimulation was used. […]. The compounds of the present invention or other comparative drugs were given thereto and analgesic effect was determined. The effect was judged by measuring pressure applied 60 minutes after the intraperitoneal administration of the compounds of the present invention. The pressure thus measured was divided by a pressure before the administration. The value thus obtained was compared with that of a control group (to which 10 ml./Kg of 0.5% sodium salt of carboxymethylcellulose or 0.5% Tween 80 was given). When the compounds of the present invention were given perorally and other comparative drugs were given, an average of the pressure at 30, 60, 90 and 120 minutes after the administration was employed for evaluating the effect.

[6] = test system: normal rats and SART stress rats; test: Analgesic effect, pain induced by Bradykinin; format: in vivo, rats (SD-strain male)
Protocol: 5.4 Method of measuring a pain induced by Bradykinin:
Groups each comprising 4-8 SD-strain male normal rats and SART stress rats to which SART stress had been applied for 4 days were used. The tests were carried out according to the method of Deffenu et al. [Deffenu, G., Pegrassi, L., & Fumachi. B.; J. Pharm. Pharmacol.; 18, 135 (1966)] and Blane method [Blane, G. F.; J. Pharm. Pharmacol.; 19, 367 (1967)]. The effect judged was shown by ratio of the rats in which the effect was recognized according to the method of Abe, et al. [Abe, Kaneko & Takagi; Folia Pharmacol. Japon.; 67, 9-14 (1971)].

[7] = test system: spontaneously hypertensive rats (SHR); test: Antihypertensive effect in spontaneously hypertensive rats; format: in vivo; conditions: 150 mg/Kg intraperitoneal, 60 minutes
Protocol: 8. Antihypertensive effect: Groups of rats each comprising 6-9 spontaneously hypertensive rats (SHR) were used. The compounds of the present invention or DPH was given intraperitoneally. The rate of antihypertension 60 minutes after the administration was determined.

Wistar-strain male rats = test: Antiulcerogenic effect on Shay's ulcer (operative ulcer); format: in vivo; conditions: 10 times
Protocol: 6.2. Antiulcerogenic effect on Shay's ulcer (operative ulcer):
Tests were carried out by using groups of rats each comprising 5-10 Wistar-strain male rats according to Shay method [Shay Harry; Gastroenterology,; 5, 43 (1945)]. Ulcers in the anterior stomach were classified on the following basis:
2. 1-5 small ulcers (diameter of less than 3 mm)
3. 6 or more small ulcers or one big ulcer (diameter of more than 3 mm)
4. two or more big ulcers

[8] = Acute toxicity test (LD50, Litchfield-Wilcoxon), mice; conditions: mouse, in vivo, ip, intraperitoneal
Protocol: (§1) Toxicity tests were carried out by intraperitoneal administration of the compound of the present invention to groups each comprising 10 ICR-strain mice and SD-strain rats. LD50 was calculated by the Litchfield-Wilcoxon method based on the number of death 72 hours after the administration.

[9] = Acute toxicity test (LD50, Litchfield-Wilcoxon), rats; conditions: rat, in vivo, ip, intraperitoneal
Protocol: as §1

dd-strain male mice [10] = test: Inhibitory effect on spontaneous motor activities (Animex method); format: in vivo; conditions: after 60 minutes
Protocol: 4.1 Inhibitory effect on spontaneous motor activities:
Groups each comprising 8-16 dd-strain male mice were used. The compounds of the present invention were given intraperitoneally. After 60 minutes, spontaneous motor activities for 15 minutes were measured by the Animex method.

ddY-strain male mice = test: Effect of prolongation of sleeping time (hexobarbital); format: in vivo; conditions: for change in vivo at 100 mg/kg: 100 mg/kg intraperitoneal
Protocol: 7. Effect of prolongation of sleeping time:
Groups of mice each comprising 10 ddY-strain male mice were used. Sodium salt of hexobarbital was given intraperitoneally. Thereafter, the period of time in which righting reflex disappeared was measured. The effect was evaluated on the basis of prolongation of time of disappearance of righting reflex by the intraperitoneal administration of the compounds of the present invention as compared with control mice.

dd-strain male mice [11] = test: Inhibitory effect on exploratory movements; format: in vivo; conditions: 150 mg/kg intraperitoneal, after 60 minutes
Protocol: 4.2. Inhibitory effect on exploratory movements:
Groups each comprising 16-35 dd-strain male mice were used. The compounds of the present invention were given intraperitoneally. After 60 minutes, exploratory movements for 15 minutes were measured with an exploratory movement recorder by a method of Tokyo Kyoiku University.

SART stress mice = test: Inhibitory effects on increase of heart rate and elongation of QRS-time in SART stress mice; format: in vivo, mice (dd-strain male); conditions: 100 mg/kg/day, 9th day, Average ± S.D.
Protocol: SART stress animals used in the tests described below were raised according to a method of Kita, et al. [Folia Pharmacol. Japan.: 71, 195-210 (1975)].
2. Inhibitory effects on increase of heart rate and elongation of QRS-time in stress animals:
Groups of mice each comprising 11 or 12 dd-strain male mice were divided into three groups in the same manner as above and heart rate and QRS-time were determined on the 9th day after initiation of the tests.

O=C1NC(=O)C(c2ccccc2)(c2ccccc2)N1 [DPH, 5,5-diphenylhydantoin, reference compound]
Inhibitory effect on Tremorine-induced tremor (dd-strain male mice [1]; 50 mg/kg intraperitoneal): 0% | Inhibitory effect on Tremorine-induced tremor (dd-strain male mice [1]; 100 mg/kg intraperitoneal): 0% | Antiulcerogenic effect on Takagi's restraint-plus-water-immersing ulcer (dd-strain male mice [2]; 50 mg/kg intraperitoneal): 7.8% | inhibition in vivo at 100 mg/kg (dd-strain male mice [2]; Mus musculus, ip, 100 mg/kg intraperitoneal): 9% | responders at 500 mg/kg ([3]; SART stress mice): 0% | responders at 500 mg/kg ([3]; normal mice): 0% | inhibition in vivo at 100 mg/kg ([4]; SART stress mice): -6% | inhibition in vivo at 100 mg/kg ([4]; normal mice): -16.3% | change in vivo at 100 mg/kg ([5]; SART stress mice, comparative drug intraperitoneal 100 mg/kg, average of 30, 60, 90 and 120 minutes): 18.4% | change in vivo at 100 mg/kg ([5]; normal mice, comparative drug intraperitoneal 100 mg/kg, average of 30, 60, 90 and 120 minutes): -33.1% | change in vivo at 500 mg/kg ([5]; SART stress mice, average of 30, 60, 90 and 120 minutes): 17.9% | change in vivo at 500 mg/kg ([5]; normal mice, average of 30, 60, 90 and 120 minutes): 5.9% | Analgesic effect ([6]; SART stress rats, peroral 500 mg/kg): 0% | Analgesic effect ([6]; normal rats, peroral 500 mg/kg): 0% | Rate of antihypertension [7]: 6.6%

O=C1NC(=O)C(c2ccc(O)cc2)(c2cccs2)N1 (centres unmarked) [Compound 1, 5-(4-Hydroxyphenyl)-5-(2-thienyl)hydantoin]
Antiulcerogenic effect on Shay's ulcer (operative ulcer) (Wistar-strain male rats; 100 mg/kg intraperitoneal): 14.6% | Antiulcerogenic effect on Shay's ulcer (operative ulcer) (Wistar-strain male rats; 150 mg/kg intraperitoneal): 26.5% | LD50 at 72 h ([8]; female): 2000 to 3000 mg/kg | LD50 at 72 h ([8]; male): > 3000 mg/kg | Inhibitory effect on Tremorine-induced tremor (dd-strain male mice [1]; 150 mg/kg intraperitoneal): 33% | inhibition in vivo at 150 mg/kg (dd-strain male mice [2]; Mus musculus, ip, 150 mg/kg intraperitoneal): 30.6% | LD50 at 72 h ([9]; female): > 3000 mg/kg | LD50 at 72 h ([9]; male): > 3000 mg/kg | responders at 200 mg/kg ([3]; SART stress mice): 30% | responders at 200 mg/kg ([3]; normal mice): 20% | inhibition in vivo at 100 mg/kg ([4]; SART stress mice): 20.9% | inhibition in vivo at 100 mg/kg ([4]; normal mice): 2.4% | Inhibitory effect on spontaneous motor activities (dd-strain male mice [10]; 50 mg/kg intraperitoneal): 22.4% | Inhibitory effect on spontaneous motor activities (dd-strain male mice [10]; 150 mg/kg intraperitoneal): 30.7% | change in vivo at 100 mg/kg ([5]; 1 h, SART stress mice, intraperitoneal 100 mg/kg, 60 minutes): 82.3% | change in vivo at 100 mg/kg ([5]; 1 h, normal mice, intraperitoneal 100 mg/kg, 60 minutes): 26.9% | change in vivo at 100 mg/kg (ddY-strain male mice; Mus musculus, ip): 36.9% | Inhibitory effect on exploratory movements (dd-strain male mice [11]): 33.2% | Heart rate (SART stress mice): 741 ± 39 min⁻¹ | QRS-time (SART stress mice): 13.9 ± 0.8 1/1000 sec

CCC1(c2ccc(O)cc2)NC(=O)NC1=O (centres unmarked) [Compound 24, 5-Ethyl-5-(4-hydroxyphenyl)hydantoin]
Antiulcerogenic effect on Shay's ulcer (operative ulcer) (Wistar-strain male rats; 50 mg/kg intraperitoneal): 17.5% | Antiulcerogenic effect on Shay's ulcer (operative ulcer) (Wistar-strain male rats; 100 mg/kg intraperitoneal): 32.2% | LD50 at 72 h ([8]; female): > 5000 mg/kg | LD50 at 72 h ([8]; male): > 5000 mg/kg | Inhibitory effect on Tremorine-induced tremor (dd-strain male mice [1]; 150 mg/kg intraperitoneal): 40% | inhibition in vivo at 75 mg/kg (dd-strain male mice [2]; Mus musculus, ip, 75 mg/kg intraperitoneal): 11.9% | inhibition in vivo at 125 mg/kg (dd-strain male mice [2]; Mus musculus, ip, 125 mg/kg intraperitoneal): 27.5% | LD50 at 72 h ([9]; female): > 5000 mg/kg | LD50 at 72 h ([9]; male): > 5000 mg/kg | change in vivo at 200 mg/kg ([5]; 1 h, SART stress mice, 60 minutes): 31.2% | change in vivo at 200 mg/kg ([5]; 1 h, normal mice, 60 minutes): 20.4% | Effect of prolongation of sleeping time (ddY-strain male mice; 50 mg/kg intraperitoneal): 42.1% | change in vivo at 100 mg/kg (ddY-strain male mice; Mus musculus, ip): 54.4% | change in vivo at 300 mg/kg (ddY-strain male mice; Mus musculus, ip, 300 mg/kg intraperitoneal): 84.4% | Analgesic effect ([6]; SART stress rats, intraperitoneal 100 mg/kg): 50% | Analgesic effect ([6]; normal rats, intraperitoneal 100 mg/kg): 20% | Heart rate (SART stress mice): 729 ± 58 min⁻¹ | QRS-time (SART stress mice): 13.3 ± 0.9 1/1000 sec
